Measured values taken from US7625891B2, “Heterocylic antiviral compounds” (Roche Palo Alto LLC, priority 2007, dated 2009).

Assays:
L1.2hCCR5 cells = assay: Chemotaxis assay; assay type: cell-based; conditions: Homo sapiens; Inhibition of RANTES stimulated chemotaxis
Text: The chemotaxis assay is a functional assay which measures the ability of a non-adherent cell line expressing human CCR5 receptor to migrate across a membrane in response to either test compounds or natural attractant ligand(s) (i.e., RANTES, MIP-1β). Generally, chemotaxis assays monitor the directional movement or migration of a suitable cell (such as a leukocyte (e.g., lymphocyte, eosinophil, basophil)) into or through a barrier (e.g., endothelium, a permeable filter membrane), toward, from a first surface of the barrier toward an opposite second surface containing attractant ligands. Membranes or filters provide convenient barriers to monitor the directional movement or migration of a suitable cell into or through a filter, toward increased levels of an attractant. In some assays, the membrane is coated with a substance to facilitate adhesion, such as ICAM-1, fibronectin or collagen. Such assays provide an in vitro approximation of leukocyte “homing”. […] The filter is then removed and the density of the cells that have migrated to the bottom wells is detected using CyQUANT^R cell proliferation assay kit (Invitrogen) and the Spectra MAX GeminiXS plate reader (Molecular Devices) according to the manufacturers' instructions. Using the fluorescence measurements the percent migration is determined by % migration=[1−(max−obs)/(max−min)]×100. […] This is calculated with Excel Fit.

CCR5 = CCR5 (Homo sapiens, UniProt P51681); assay: Human CCR5 receptor-ligand binding assay (125I RANTES, CHO-Gα16-hCCR5 cells); set-up: expressed in transfected cells; conditions: specific 125I RANTES binding, CHO-Gα16-hCCR5 cells; read-out: IC50
Description: The construct was transfected into CHO-Gα16 cells by using Fugene Reagent (Roche).
Adherent cells in […] tissue culture flask (ca. 90% confluent) were harvested using 1 mM EDTA in PBS (phosphate-buffered saline) without Ca^2+ and Mg^2+. Cells were washed twice with PBS containing no Ca^2+ and Mg^2+.
Eighty μl CHO-Gα16-hCCR5 (1×10^6/mL) cells were added to 96 well plates.
The compound dilutions were made in PBS, 1% BSA. Total reaction volume was 100 μl per well. The test compounds were added to the cells prior to the addition of radioligand.
After incubation, the cells were harvested onto GF/C filter plates using Packard cell harvester. Filters were pretreated with 0.3% PEI/0.2% BSA for 30 min. The filter plate was washed rapidly 5 times with 25 mM HEPES, 500 mM NaCl, 1 mM CaCl2 and 5 mM MgCl2 adjusted to pH 7.1. Plates were dried in oven (70° C.) for 20 min, added with 40 μl scintillation fluid and sealed with Packard TopSeal-A. Packard Top Count was used to measure of the radioactivity for 1 min per well.
Total binding was determined with control wells added with radioisotope and buffer and the non-specific binding was determined using an excess cold RANTES to some of the control wells. Specific binding was determined by subtracting the non-specific form total binding. […] IC50 values were determined using varying concentrations of the test ligand in triplicates and the data was analyzed using GraphPad Prism (GraphPad, San Diego, Calif.).

Sequence of CCR5 (P51681 whole entry): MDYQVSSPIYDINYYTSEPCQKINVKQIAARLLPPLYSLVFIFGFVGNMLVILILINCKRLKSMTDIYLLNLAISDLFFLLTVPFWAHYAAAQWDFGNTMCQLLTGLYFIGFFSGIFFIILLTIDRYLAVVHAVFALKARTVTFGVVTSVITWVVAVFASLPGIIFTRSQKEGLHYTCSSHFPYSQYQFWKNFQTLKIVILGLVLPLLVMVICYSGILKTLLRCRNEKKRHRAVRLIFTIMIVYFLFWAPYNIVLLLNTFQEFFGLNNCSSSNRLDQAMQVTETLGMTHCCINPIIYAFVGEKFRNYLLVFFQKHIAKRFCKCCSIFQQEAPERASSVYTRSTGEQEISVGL

IC50 (L1.2hCCR5 cells): 237 nM
IC50 (CCR5): 16.2 nM
Compound: CCCCC1CN(C[C@H]2CC[C@@H](OC)CC2)C(=O)OC12CCN(C1(C)CCN(C(=O)c3c(C)ncnc3C)CC1)CC2 (relative stereo) [Compound I-2, 5-Butyl-9-[1-(4,6-dimethyl-pyrimidine-5-carbonyl)-4-methyl-piperidin-4-yl]-3-(cis-4-methoxy-cyclohexylmethyl)-1-oxa-3,9-diaza-spiro[5.5]undecan-2-one]
